Measurements reported in article PMC6467259 (Journal of the American Chemical Society, 2018).

Molecular target: PagF (Planktothrix agardhii, UniProt F5B6Z0, F222A)
Test: crystal structure of the complex, […] Å
Details: MgCl2; isoprene donor-binding site

## CC(C)=CCC/C(C)=C/COP(=O)(O)OP(=O)(O)O [GPP]
  crystal structure of the complex, 1.85 Å: crystals of Phe222→Ala PagF in complex with GPP and MgCl2
